One assay deals with HPAC cells. Kind of assay: Mitochondrial membrane potential by FACS (JC-1), HPAC. Type of assay: cell-based, human. The conditions noted are these: dose-dependent, 48 hrs of treatment. The protocol: Cells. Human pancreatic cell lines HPAC, MIAPaCa-2 and PANC-1 were obtained from the ATCC. (Manassas, Va.). The cells were maintained in DMEM media with Gln and high glucose (Mediatech, Manassas, Va.) with 10% fetal bovine serum (FBS, HyClone, Logan, Utah) and pencillin/streptomycin.
FACS Analysis. Apoptosis was measured by FACS analysis using Annexin-V-FITC and propidium iodide (PI) (Biovision, Mountain View, Calif.) as probes (Ahn et al., 2003). Mitochondrial membrane potential was measured by FACS analysis using JC-1 (Biovision) as a probe (Ahn et al., 2003). Cell cycle was analyzed on ethanol-fixed, RNaseA-treated cells staining with PI. In each spectrum, 10,000 gated events were recorded and analyzed with a FACSCalibur (BD Biosciences. San Jose, Calif.). All experiments were done in triplicate, error bars represent one standard deviation. Caspase inhibitor I (zVAD-fmk) was obtained from Calbiochem.
On the technique in general: Flow cytometry measures light scatter and fluorescence of single cells or particles in a stream.

Assay [1] concerns phospho-S6 kinase (p-S6K). Kind of assay: Western blot of lysed xenograft tumors for p-S6k. It counts as in vivo, NCR nude mice. The conditions noted are these: tumors from treated animals vs vehicle control. How it is done:
SDS-PAGE and Western blots. Cell lysates (20 μg protein) were denatured in sample buffer (2.5% SDS, 10% glycerol, 5% β-mercapto-ethanol, 0.15 M Tris (pH=6.8) and 0.01% bromophenol blue) and subjected to 12% SDS-PAGE as previously described (Kamsteeg et al, 2003). The following antibodies and concentrations were used: mouse anti-XIAP (BD, 1:1,000), rabbit anti-MAP LC3 (1:200), rabbit anti-actin (Sigma, 1:10,000), rabbit anti-phosphorylated Akt (Cell Signaling, 1:1,000), rabbit anti-Akt (Cell Signaling, 1:1000), rabbit anti-phosphorylated mTOR (Cell Signaling, 1:1000), rabbit anti-mTOR (Cell Signaling, 1:1000), rabbit anti-cytochrome c (Clontech Laboratories, Inc, Mountainview, Calif., 1:100), rabbit anti-Omi (R&D Systems, Minneapolis, Minn., 1:5000), rabbit anti-Bid (Cell Signaling, 1:1000), mouse anti-Bax (BD Pharmingen, 1:250), rabbit anti-VDAC (Sigma Aldrich, 1:2000), mouse anti-Bcl2 (BD Pharmingen, 1:500), rabbit anti-AIF (Sigma Aldrich, 1:1000), rabbit anti-EndoG (Sigma Aldrich, 1:1000), mouse anti-topoisomerase I (BD Pharmingen, 1:10,000). Proteins were visualized using enhanced chemiluminescence (Pierce, Rockford Ill.).
Mouse xenograft studies. […] Tumor size was determined by caliper measurements and anti-tumor activity was analyzed with respect to maximal tumor inhibition (treated/control, T/C) as described previously (Kamsteeg et al, 2003).
For orientation: Immunoblotting shows a protein as a band on a membrane.

The results in this text go back to patent US20100130598A1, “METHODS FOR INDUCING PROGRAMMED CELL DEATH” (Novogen Research Pty Ltd., priority 2008, published 2010).

Turning to `COc1ccc(C2c3ccc(O)cc3OCC2c2ccc(O)cc2)cc1` (centres unmarked) [Compound 10, 3-(4-hydroxyphenyl)-4-(4-methoxyphenyl)chroman-7-ol], in the assay with HPAC cells, the mitochondrial depolarization entry is given as “depolarized”.

With `COc1ccc(C2c3ccc(O)c(C)c3OCC2c2ccc(O)cc2)cc1` (centres unmarked) [Compound 1, 3-(4-hydroxyphenyl)-4-(4-methoxyphenyl)-8-methylchroman-7-ol], the p-S6k in tumors entry in assay [1] is on record as “significant decrease”.
